Measured values taken from ChEMBL document CHEMBL5034034 (J Med Chem, 2021).
Activity calls are given as the source filed them. The rule behind the calls is not given here.

Legend:
[1] = target: T1, Proprotein convertase subtilisin/kexin type 9 (Homo sapiens, UniProt Q8NBP7); experiment: Inhibition of human PCSK9 using Alexa Fluor […] as substrate incubated for 2 hrs by FRET assay
[2] = target: T1, Proprotein convertase subtilisin/kexin type 9; experiment: Inhibition of human PCSK9 using Alexa Fluor […] as substrate incubated for 2 hrs by FRET plus assay
Mast cell = experiment: Induction of rat mast cells degranulation activity at 100 uM incubated for 30 mins; format: functional, tissue-based

T1 sequence (Q8NBP7 31-152 limits assumed): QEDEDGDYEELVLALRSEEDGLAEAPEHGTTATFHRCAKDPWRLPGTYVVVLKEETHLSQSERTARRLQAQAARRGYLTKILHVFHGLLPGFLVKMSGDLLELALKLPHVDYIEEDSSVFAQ
T1 sequence (Q8NBP7 153-692 limits assumed): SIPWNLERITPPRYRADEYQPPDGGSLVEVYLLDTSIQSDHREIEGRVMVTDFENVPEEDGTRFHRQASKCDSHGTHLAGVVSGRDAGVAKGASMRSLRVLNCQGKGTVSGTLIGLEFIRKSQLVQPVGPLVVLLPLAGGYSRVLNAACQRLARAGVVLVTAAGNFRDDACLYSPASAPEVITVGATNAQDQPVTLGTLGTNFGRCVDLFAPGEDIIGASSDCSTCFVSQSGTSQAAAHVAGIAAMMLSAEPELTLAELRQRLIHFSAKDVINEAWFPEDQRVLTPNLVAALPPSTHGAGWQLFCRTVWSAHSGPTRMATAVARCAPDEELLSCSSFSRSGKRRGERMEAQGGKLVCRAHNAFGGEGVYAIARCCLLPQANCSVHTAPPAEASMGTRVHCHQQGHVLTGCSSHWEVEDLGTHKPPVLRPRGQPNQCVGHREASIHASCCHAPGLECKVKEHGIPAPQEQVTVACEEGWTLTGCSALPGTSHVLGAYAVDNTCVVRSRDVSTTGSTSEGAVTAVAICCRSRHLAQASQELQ

SMILES	Ki [1]	Ki [2]	Activity (Mast cell)
COc1ccc(C[C@@H]2NC(=O)[C@H]([C@@H](C)OC)NC(=O)[C@@H]3[C@@H]4CCN3C(=O)[C@H](Cc3c[nH]c5ccc(F)cc35)NC(=O)[C@H](Cc3cccc(c3)CCCCO4)NC(=O)[C@@H](C)NC(=O)[C@H](C)NC(=O)CCSCc3cccc(c3)CSCCNC(=O)[C@]3(C)CCCN3C2=O)cc1	2.17 nM	–	–
COc1ccc(C[C@@H]2NC(=O)[C@H]([C@@H](C)OC)NC(=O)[C@@H]3[C@@H]4CCN3C(=O)[C@H](Cc3c[nH]c5ccc(F)cc35)NC(=O)[C@H](Cc3cccc(c3)C/C=C\CO4)NC(=O)[C@@H](C)NC(=O)[C@H](C)NC(=O)CCSCc3cccc(c3)CSCCNC(=O)[C@]3(C)CCCN3C2=O)cc1	4.83 nM	–	–
COc1ccc(C[C@@H]2NC(=O)[C@H]([C@@H](C)O)NC(=O)[C@@H]3[C@@H]4CCN3C(=O)[C@H](Cc3c[nH]c5ccc(F)cc35)NC(=O)[C@H](Cc3cccc(c3)C/C=C\CO4)NC(=O)[C@@H](C)NC(=O)[C@H](C)NC(=O)CCSCc3cccc(c3)CSCCNC(=O)[C@]3(C)CCCN3C2=O)cc1	4.66 nM	–	–

Second part, led by results:

Ki [1]	Ki [2]	SMILES	Activity (Mast cell)
0.2 nM	0.16 nM	COc1ccc(C[C@@H]2NC(=O)[C@H]([C@@H](C)OC)NC(=O)[C@@H]3[C@@H]4CCN3C(=O)[C@H](Cc3c[nH]c5ccc(F)cc35)NC(=O)[C@H](Cc3cccc(c3)C/C=C/CO4)NC(=O)[C@@H](CN)NC(=O)[C@H](C)NC(=O)CCSCc3cccc(c3)CSCCNC(=O)[C@]3(C)CCCN3C2=O)cc1	–
4.36 nM	–	COc1ccc(C[C@@H]2NC(=O)[C@H]([C@H](C)OC)NC(=O)[C@@H]3[C@@H]4CCN3C(=O)[C@H](Cc3c[nH]c5ccc(F)cc35)NC(=O)[C@H](Cc3cccc(c3)C/C=C\CO4)NC(=O)[C@H](C)NC(=O)[C@H](CN)NC(=O)CCSCc3cccc(c3)CSCCNC(=O)[C@]3(C)CCCN3C2=O)cc1	–
1.16 nM	2.25 nM	COc1ccc(C[C@@H]2NC(=O)[C@H]([C@@H](C)OC)NC(=O)[C@@H]3[C@@H]4CCN3C(=O)[C@H](Cc3c[nH]c5ccc(F)cc35)NC(=O)[C@H](Cc3cccc(c3)C/C=C\CO4)NC(=O)[C@@H](CN)NC(=O)[C@H](C)NC(=O)CCSCc3cccc(c3)CSCCNC(=O)[C@]3(C)CCCN3C2=O)cc1	–
0.45 nM	0.23 nM	COc1ccc(C[C@@H]2NC(=O)[C@H]([C@H](C)OC)NC(=O)[C@@H]3[C@@H]4CCN3C(=O)[C@H](Cc3c[nH]c5ccc(F)cc35)NC(=O)[C@H](Cc3cccc(c3)C/C=C/CO4)NC(=O)[C@H](C)NC(=O)[C@H](CN)NC(=O)CCSCc3cccc(c3)CSCCNC(=O)[C@]3(C)CCCN3C2=O)cc1	inactive
